This passage reports IC50 results from patent US10865191B2, “Heterocyclic compounds useful as modulators of TNF alpha” (BRISTOL-MYERS SQUIBB COMPANY, priority 2015, dated 2020).

As usually defined, the pIC50 is the negative decadic logarithm of the IC50, by convention in mol/L.

pIC50: −log10 of the molar value.

TNFα, sequence (P01375 77-233 limits assumed): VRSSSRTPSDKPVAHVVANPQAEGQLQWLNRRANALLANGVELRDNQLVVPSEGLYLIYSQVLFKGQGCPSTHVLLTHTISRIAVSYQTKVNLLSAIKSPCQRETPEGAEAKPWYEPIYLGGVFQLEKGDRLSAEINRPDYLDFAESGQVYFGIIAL

The target of this assay is TNFα (Homo sapiens, UniProt P01375). As to the kind of experiment: TNF induced HEK-Blue assay (NF-kB-driven secreted alkaline phosphatase reporter). Format: cell-based. The note with it: TNFα 0.5 ng/mL, HEK-Blue-CD40L cells, 18 h; read-out: TNF induced HEK-Blue assay IC50 value. The method, boiled down:
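HEK-Blue-CD40L cells (NF-kB-driven SEAP reporter), 20,000/well, added after 30 min pre-incubation of compound (0.004–25 μM final) with TNFα 0.5 ng/mL final at 37 °C; 18 h incubation. SEAP read with QUANTI-Blue at 620 nm; IC50 from 4-parameter logistic fit, normalized to unstimulated and stimulated DMSO controls.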
In the case of `C[C@@H](Nc1c(Cl)cnc2cc(F)c(-c3cnc(C(C)(C)O)nc3)nc12)c1cccc(C#N)c1` [Example 588, (R)-3-(1-((3-chloro-7-fluoro-6-(2-(2-hydroxypropan-2-yl)pyrimidin-5-yl)-1,5-naphthyridin-4-yl)amino)ethyl)benzonitrile], the pIC50 is > 6.00.

For `Cc1nc2cc(F)c(-c3cnc(C(C)(C)O)nc3)nc2c(N[C@H](C)c2cccc(C#N)c2)c1Cl` [Example 589, (R)-3-(1-((3-chloro-7-fluoro-6-(2-(2-hydroxypropan-2-yl)pyrimidin-5-yl)-2-methyl-1,5-naphthyridin-4-yl)amino)ethyl)benzonitrile], the pIC50 was > 6.00.

As to `C[C@@H](Nc1c(Cl)cnc2cc(F)c(-c3cnc(C(C)(C)O)nc3)nc12)c1cc(C#N)ccc1F` [Example 590, (R)-3-(1-((3-chloro-7-fluoro-6-(2-(2-hydroxypropan-2-yl)pyrimidin-5-yl)-1,5-naphthyridin-4-yl)amino)ethyl)-4-fluorobenzonitrile], the pIC50 was > 6.00.

For the compound `CC(Nc1ncc(-c2ccc3ncc(Cl)c(N[C@H](C)c4ccccc4F)c3c2)cn1)C(N)=O` (stereo partly drawn) [Example 591, 2-((5-(3-chloro-4-(((R)-1-(2-fluorophenyl)ethyl)amino)quinolin-6-yl)pyrimidin-2-yl)amino)propanamide], the pIC50 was > 6.00.

On to `CC(=O)NC(C)(C)c1ccc(-c2ccc3ncc(Cl)c(NC(C)c4ccccc4F)c3c2)cc1` (centres unmarked) [Example 592, N-(2-(4-(3-chloro-4-((1-(2-fluorophenyl)ethyl)amino)quinolin-6-yl)phenyl)propan-2-yl)acetamide], for which the negative-log IC50 (pIC50) was 5.00 to 6.00.

As to `C[C@@H](Nc1c(Cl)cnc2ccc(-c3cnc(C4CCN(CC(=O)O)CC4)nc3)cc12)c1ccccc1F` [Example 593, (R)-2-(4-(5-(3-chloro-4-((1-(2-fluorophenyl)ethyl)amino)quinolin-6-yl)pyrimidin-2-yl)piperidin-1-yl)acetic acid], the negative logarithm of the IC50 (pIC50) was 5.00 to 6.00.

For `C[C@@H](Nc1c(Cl)cnc2cc(F)c(-c3cnc(C4CCN(CC(=O)O)CC4)nc3)cc12)c1ccccc1F` [Example 594, (R)-2-(4-(5-(3-chloro-7-fluoro-4-((1-(2-fluorophenyl)ethyl)amino)quinolin-6-yl)pyrimidin-2-yl)piperidin-1-yl)acetic acid], the pIC50 was > 6.00.

On to `CC(C)(O)c1ncc(-c2cc3c(NC4(c5ccccc5F)CCC4)c(Cl)cnc3cc2F)cn1` [Example 609, 2-(5-(3-chloro-7-fluoro-4-((1-(2-fluorophenyl)cyclobutyl)amino)quinolin-6-yl)pyrimidin-2-yl)propan-2-ol], for which the pIC50 is 5.00 to 6.00.
